Data published in ChEMBL document CHEMBL5357021, “Novel Triazolopyridine-Based BRD4 Inhibitors as Potent HIV-1 Latency Reversing Agents” (ACS Med Chem Lett, 2024).
The source made the active and inactive calls. The rule behind the calls is not given here.

How the values were obtained:
[1] = system: Human immunodeficiency virus 1; assay: Reversal of HIV-1 latency in CD4+ T-lymphoid J-Lat cells contains HIV-1 long terminal repeats (LTR)-Tat-GFP assessed as reactivation measured after 48 hrs by flow cytometry; type: functional, organism-based; conditions: Human immunodeficiency virus 1, J-Lat 10.6, 48 h
[2] = Cytotoxicity against human non-infected J-Lat A10.6 cells assessed as cell death by CCK8 assay; type: toxicity, cell-based, J-Lat 10.6
PBMC [3] = assay: Immune hyper-activation in human PBMC cells assessed as CD25 expression at 10 uM measured after 48 hrs by flow cytometry; type: toxicity, cell-based
PBMC [4] = assay: Immune hyper-activation in human PBMC cells assessed as CD69 expression at 10 uM measured after 48 hrs by flow cytometry; type: toxicity, cell-based
PBMC [5] = assay: Immune hyper-activation in human PBMC cells assessed as HLA-DR expression at 10 uM measured after 48 hrs by flow cytometry; type: toxicity, cell-based
[6] = target: Bromodomain-containing protein 4 (Homo sapiens) (UniProt O60885); assay: Inhibition of BRD4 phosphorylation in human J-Lat A10.6 cells contains HIV-1 long terminal repeats (LTR)-Tat-GFP at 2 to 50 uM measured after 24 hrs by Western blotting analysis; type: cell-based; conditions: J-Lat 10.6, dose 2-50 µM
[7] = target: Bromodomain-containing protein 4 (Homo sapiens) (UniProt O60885); assay: Inhibition of human BRD4 in J-lat 10.6 cells contains HIV-1 long terminal repeats (LTR)-Tat-GFP assessed as cyclin T1 expression at 2 to 50 uM measured after 24 hrs by Western blot analysis; type: cell-based; conditions: dose 2-50 µM
[8] = target: Bromodomain-containing protein 4 (Homo sapiens) (UniProt O60885); assay: Inhibition of human BRD4 in J-lat 10.6 cells contains HIV-1 long terminal repeats (LTR)-Tat-GFP assessed as CDK9 expression at 2 to 50 uM measured after 24 hrs by Western blot analysis; type: cell-based; conditions: dose 2-50 µM
[9] = target: Bromodomain-containing protein 4 (Homo sapiens) (UniProt O60885); assay: Inhibition of human BRD4 in J-lat 10.6 cells contains HIV-1 long terminal repeats (LTR)-Tat-GFP assessed as phosphorylated CDK9 expression at 2 to 50 uM measured after 24 hrs by Western blot analysis; type: cell-based; conditions: dose 2-50 µM
[10] = target: Bromodomain-containing protein 4 (Homo sapiens) (UniProt O60885); assay: Inhibition of human BRD4 recruitment in J-Lat A10.6 cells contains HIV-1 long terminal repeats (LTR) assessed as reduction of BRD4 and HIV-1 LTR interaction at 10 uM incubated for 6 hrs by CHIP assay; type: cell-based; conditions: J-Lat 10.6
[11] = target: Bromodomain-containing protein 4 (Homo sapiens) (UniProt O60885); assay: Inhibition of BRD4 in human J-Lat 10.6 cells contains HIV-1 long terminal repeats (LTR)-Tat-GFP assessed as increased CDK9 enrichment in LTR at 10 uM incubated for 6 hrs by ChiP assay; type: cell-based
[12] = target: Bromodomain-containing protein 4 (Homo sapiens) (UniProt O60885); assay: Inhibition of BRD4 in human J-Lat 10.6 cells contains HIV-1 long terminal repeats (LTR)-Tat-GFP assessed as increased RNA pol II enrichment in LTR at 10 uM incubated for 6 hrs by ChiP assay; type: cell-based
[13] = system: Human immunodeficiency virus 1; assay: Synergistic reversal of HIV-1 latency in human J-Lat 10.6 cells contains HIV-1 long terminal repeats (LTR)-Tat-GFP assessed as increase in GFP-positive cells by measuring combination index at 10 uM incubated for 48 hrs in presence of Prostratin by flow cytometry; type: functional
[14] = Synergistic reversal of HIV-1 latency in human J-Lat 10.6 cells contains HIV-1 long terminal repeats (LTR)-Tat-GFP assessed as increase in GFP-positive cells by measuring combination index at 10 uM incubated for 48 hrs in presence of N1-hydroxy-N8-phenyloctanediamide by flow cytometry; type: functional, Human immunodeficiency virus 1
J-Lat 10.6 [15] = assay: Reversal of HIV-1 latency in human J-Lat10.6 cells contains HIV-1 long terminal repeats (LTR)-Tat-GFP assessed as reactivation measured at 10 uM after 48 hrs in presence of raltegravir by flow cytometry; type: functional, cell-based; conditions: Human immunodeficiency virus 1
J-Lat 10.6 [16] = assay: Reversal of HIV-1 latency in human J-Lat10.6 cells contains HIV-1 long terminal repeats (LTR)-Tat-GFP assessed as reactivation measured at 10 uM after 48 hrs in presence of Efavirenz by flow cytometry; type: functional, cell-based; conditions: Human immunodeficiency virus 1
J-Lat 10.6 [17] = assay: Reversal of HIV-1 latency in human J-Lat10.6 cells contains HIV-1 long terminal repeats (LTR)-Tat-GFP assessed as reactivation measured at 10 uM after 48 hrs in presence of darunavir by flow cytometry; type: functional, cell-based; conditions: Human immunodeficiency virus 1
[18] = system: Human immunodeficiency virus 1; assay: Reversal of HIV-1 latency in ACH-2 cell line contains complete HIV-1 provirus assessed as reactivation by measuring HIV-1 p24 antigen expression 5 uM measured after 48 hrs by ELISA; type: functional, organism-based
PBMC [19] = assay: Cytotoxicity against human PBMC cells assessed as cell viability measured after 48 hrs by MTT assay; type: toxicity, cell-based
[20] = Cytotoxicity against human J-Lat A10.6 cells infected with HIV-1 assessed as cell viability measured after 48 hrs by MTT assay; type: toxicity, cell-based; conditions: j-lat 10.6, 48 h
ACH-2 cell line = assay: Cytotoxicity against human ACH-2 cell line cells infected with HIV-1 assessed as cell viability measured after 48 hrs by MTT assay; type: toxicity, cell-based; conditions: ach-2, 48 h
[21] = Cytotoxicity against human OM10.1 cells infected with HIV-1 assessed as cell viability measured after 48 hrs by MTT assay; type: toxicity, cell-based; conditions: om10.1, 48 h
[22] = target: Bromodomain-containing protein 4 (Homo sapiens) (UniProt O60885); assay: Inhibition of BRD4 BD1 domain (unknown origin) at 1 uM by HTRF assay
[23] = target: Bromodomain-containing protein 4 (Homo sapiens) (UniProt O60885); assay: Inhibition of BRD4 BD2 domain (unknown origin) at 1 uM by HTRF assay
[24] = Effect on CXCR4 expression in human PBMC cells at 10 uM incubated for 48 hrs by flow cytometry; type: toxicity, cell-based
[25] = Effect on CXCR5 expression in human PBMC cells at 10 uM incubated for 48 hrs by flow cytometry; type: toxicity, cell-based
PBMC [26] = assay: Effect on CXCR4 expression in human PBMC cells at 1 uM incubated for 48 hrs by flow cytometry; type: functional, cell-based
PBMC [27] = assay: Effect on CXCR5 expression in human PBMC cells at 1 uM incubated for 48 hrs by flow cytometry; type: functional, cell-based

Cc1nnc2ccc(-c3cc(NS(=O)(=O)c4ccc(F)cc4)ccc3Oc3ccc(F)cc3F)cn12
EC50 [1]: 1.6 µM
CC50 [2]: > 50 µM
Activity (PBMC [3]): Non-Toxic
Activity (PBMC [4]): Non-Toxic
Activity (PBMC [5]): Non-Toxic
inhibition [6]: Active
inhibition [7]: inactive
inhibition [8]: inactive
inhibition [9]: Active
inhibition [10]: Active
inhibition [11]: Active
inhibition [12]: Active
CI [13]: 0.1
CI [14]: 0.1
Activity (J-Lat 10.6 [15]): Active
Activity (J-Lat 10.6 [16]): Active
Activity (J-Lat 10.6 [17]): Active
Activity [18]: Active
Activity (PBMC [19]): Non-Toxic
Activity [20]: Non-Toxic
Activity (ACH-2 cell line): Non-Toxic
Activity [21]: Non-Toxic
inhibition [22]: Active
inhibition [23]: Active
Activity [24]: Not Active
Activity [25]: Not Active
Activity (PBMC [26]): inactive
Activity (PBMC [27]): inactive
